Patent US9017963B2, “Method for detecting microorganisms” (Woundchek Laboratories (US), Inc., priority 2002, dated 2015)
*: point of attachment. Dabsyl = label, CN(C)c1ccc(/N=N/c2ccc(S(=O)(=O)*)cc2)cc1; EDANS = O=S(=O)(O)c1cccc2c(NCCN*)cccc12

Assays:
S. epidermidis = experiment: Indolyl ester glass microfiber filter sensor, S. epidermidis; type: biochemical, Staphylococcus epidermidis; settings: substrates bound to glass microfiber filter; FIG. 17B
Excerpt: Hydrophobic interactions make use of the non-ionic packing that occurs in a polar solvent such as water and such interactions can be used in the production of biosensors for detection of pathogens. The substrates 5-bromo-4-chloro-3indolyl butyrate and 5-bromo-4-chloro-3indolyl caprylate can be spotted onto a glass microfiber filter to make a sensor. Upon spotting the filter with a small amount of Staphylococcus (aureus or epidermidis) culture medium the color of the filter will turn blue in approximately 15 minutes.

S. pyogenes = experiment: Indolyl ester glass microfiber filter sensor, S. pyogenes; type: biochemical, Streptococcus pyogenes; settings: substrates bound to glass microfiber filter; FIG. 17B
lipase from S. aureus = experiment: Lipase assay, S. aureus culture supernatant; type: biochemical, Staphylococcus aureus; settings: 20 mM Tris (pH 8.3) with 1 mM ZnSO4, 20% methanol, 20% DMSO, or 10 mM Triton X-100 vs control
Procedure: (§1) A culture of each of the following bacterial species was grown to saturation in Brain Heart Infusion (BHI) broth at 37° C. with vigorous shaking (˜200 rpm), using methods that are standard in the art: Staphylococcus aureus; Staphylococcus epidermidis; Serratia marcescens; Streptococcus salivarius; Escherichia coli; Pseudomonas aeruginosa; and Enterococcus faecalis. After overnight growth (to saturation), a 1 mL sample of each culture was obtained, and the cells were removed from the culture supernatant by centrifugation at 12,000×g for 5 minutes. The remaining culture supernatants were stored on ice until required (less than one hour). The bacteria were assayed for the presence or absence of specific enzymes as described below. Alternatively, the bacterial cells are not separated from the culture supernatant, but rather, the assay is carried out on a sample containing the cells still in suspension in their culture broth.
To test for the presence or absence of lipases secreted by bacteria, the lipase substrate p-nitrophenyl caprate, obtained from Sigma (Catalog No.: N-0252). This lipase substrate consists of capric acid, a ten-carbon lipid molecule, esterified with the dye para nitrophenol (detectable label) as described above. The substrate was dissolved in isopropyl alcohol at a concentration of 8 mM (2.35 mg/mL). A reaction buffer containing 20 mM Tris (pH 8.5) was also prepared.
To perform the lipase assay, 80 μL of reaction buffer, 10 μL of culture supernatant from each bacteria species described in Example 2, and 10 μL of assay substrate were added to a well of a 96-well microplate. Each bacterial species was assayed individually, and the assays were performed in triplicate. The 96-well plate was incubated at 37° C. for 60 minutes. At 5 minute intervals during the incubation period, absorbance at 415 nm, indicating modification of the enzyme by a lipase secreted by the cells, was automatically measured using a BioRad Benchmark Microplate reader.
However, it is known that bacterial lipases do show strong substrate specificity with regard to the chain length of the fatty acid they hydrolyze (Van Kampen et al., BBA, 1544: 229, 2001) and to the location in a lipid layer. The degree that the environment of the substrate affects the efficiency of hydrolysis depends on the particular enzyme. To test this for the lipase from S. aureus, the above-described lipase assay was performed in the presence of several detergent and solvent additives. The reaction buffer consisted of 20 mM Tris (pH 8.3) with 1 mM ZnSO4 added, plus either nothing additional (control), 20% methanol, 20% DMSO, or 10 mM Triton X-100.

[1] = system: Serratia marcescens specific protease; experiment: Serratia protease FRET assay, S. marcescens culture; type: biochemical
Excerpt: A Serratia marcescens specific protease was identified based on a homology search using the sequence of a known sspB protease found in the Staphylococcus species. This protease has homology to the cysteine protease precursor (sspB) protein of Staphylococcus aureus. The corresponding Serratia protease has not been previously characterized. To test for the presence of the specific protease in a bacterial culture, a short target peptide was designed. This target peptide was derived from a polypeptide substrate previously shown to be cleaved by S. aureus sspB (Chan and Foster, J. Bacteriology 180:6232-6241, 1998). This peptide was capped by a fluorescent dye molecule on one end and by an associated chromophore molecule on the other end. If the absorption band of the chromophore has sufficient overlap with the absorbance band associated with the fluorescence of the dye molecule, the observed fluorescence will be quenched. This phenomenon is known as fluorescence resonance energy transfer (FRET) and can be used to determine the distance between the FRET donor and acceptor molecules. Upon cleavage of the peptide the fluorescent indicator is released from the proximity of the quencher and the fluorescence increase is measured. Thus, the presence or absence of a protease that targets the peptide in the sample can be determined by detecting fluorescence emitted by the cleaved peptide. […]

[2] = system: beta-galactosidase (Streptococcus salivarius); experiment: Beta-galactosidase assay, S. salivarius supernatant; type: biochemical; settings: 37° C.
Procedure: as §1
(§2) To determine the presence or absence of bacteria in a sample, mid-log phase bacterial supernatants were obtained as described in Example 2. A substrate solution containing the labeled synthetic substrate ortho-nitrophenyl-b-D-galactopyranoside (ONPG) dissolved in 50% DMSO to a concentration of 20 mM was prepared. […] The samples were incubated at 37° C. and absorbance at 420 nm was measured hourly.

[3] = system: beta-galactosidase (other bacterial supernatants of Example 2); experiment: Beta-galactosidase assay, other species; type: biochemical; settings: 37° C.
Procedure: as §1, §2

[4] = system: autolysins (Enterococcus faecalis); experiment: Autolysin assay, E. faecalis supernatant; type: biochemical; settings: 20° C., 7 hours
Procedure: as §1, with “Alternatively, the bacterial cells are not separated from the culture supernatant, but rather, the assay is carried out on a sample containing the cells still in suspension in their culture broth.” left out
(§3) To test for the presence of autolysins in bacterial cell culture supernatants, the synthetic autolysin substrate p-nitrophenyl-N-acetyl-b-D-glucosaminide (PNP-AGA), a substrate containing a dye that is detected at […] when the substrate is modified, was dissolved in 50% DMSO to a final concentration of 20 mM to form a substrate solution. Modification of this substrate can be detected by measuring the change in absorbance at 405 nm. […] The progress of modification of the labeled substrate was monitored by absorbance at 405 nm.

[5] = system: other bacterial culture supernatants of Example 2; experiment: Autolysin assay, other culture supernatants; type: biochemical; settings: other culture supernatants vs water control; 20° C., 7 hours
Procedure: as §1, with “Alternatively, the bacterial cells are not separated from the culture supernatant, but rather, the assay is carried out on a sample containing the cells still in suspension in their culture broth.” left out
as §3

[6] = system: Staphylococcus aureus, Listeria monocytogenes, Pseudomonas aeruginosa, Enterococcus faecalis, Streptococcus salivarius, Escherichia coli cultures; experiment: Serratia protease FRET assay, other bacterial pathogen samples; type: biochemical; settings: other bacterial samples vs water control; same conditions
Procedure: The specificity of the protease for Serratia marcescens is was determined by detecting cleavage of a target polypeptide, using FRET, by the protease in a number of different bacterial pathogen samples. The bacterial pathogen samples used in this study were all taken from overnight cultures grown in brain heart […] (BHI) media at 37° C., as described herein. The bacterial pathogens chosen for this study were: Staphylococcus aureus, Listeria monocytogenes, Pseudomonas aeruginosa, Enterococcus faecalis, Streptococcus salivarius, Serratia marcescens, and Escherichia coli. The target peptide substrate used to test for the Serratia marcescens specific protease was as follows: Dabsyl-NEAIQEDQVQYE-Edans (SEQ ID NO: 2), and was prepared using standard methods known to one skilled in the art. A substrate solution containing 1 mg/mL to 5 mg/mL of target peptide substrate in 1:1 water/dimethylsulfoxide (DMSO) was prepared. The reaction buffer used was 20 mM Tris (pH 7.5) with 200 mM NaCl. […] The narrow band filters in the fluorimeter were centered at 305 nm for excitation and 485 nm for fluorescence emission readings. The samples were incubated at 37° C. and the fluorescence of each sample was measured at time points taken every 10 minutes. […]

[7] = system: Serratia marcescens specific protease; experiment: Biosensor: target peptide bound to Cell Debris Remover, exposed to Serratia marcescens extract; type: biochemical
Excerpt: An example of a biosensor for the detection of a Serratia marcescens (S. marcescens) specific protease, and therefore, for the detection of Serratia marcescens now follows. The Serratia marcescens specific target peptide substrate was bound to a surface with a weak positive charge, such as fibrous cellulose lightly substituted with DEAE (Cell Debris Remover, Whatman, Inc.).

CCCC(=O)Oc1c[nH]c2ccc(Br)c(Cl)c12 [5-bromo-4-chloro-3indolyl butyrate]
detection on filter sensor (dark spot) (S. epidermidis): dark spot corresponding to S. epidermidis indicates detection
detection on filter sensor (S. pyogenes): did not detect S. pyogenes

CCCCCCCC(=O)Oc1c[nH]c2ccc(Br)c(Cl)c12 [5-bromo-4-chloro-3indolyl caprylate]
detection on filter sensor (dark spot) (S. epidermidis): dark spot corresponding to S. epidermidis indicates detection
detection on filter sensor (S. pyogenes): did not detect S. pyogenes

C[S+](C)[O-] [DMSO]
effect of additive on hydrolysis rate of p-nitrophenyl caprate (lipase from S. aureus): hydrolysis rate was found to increase

O=C(O)CN(CCN(CC(=O)O)CC(=O)O)CC(=O)O [EDTA, ethylenediaminetetraacetic acid]
effect of EDTA on protease activity (relative fluorescence of the target peptide) ([1]; One mM EDTA added to 20 mM Tris (pH 7.5) with 200 mM NaCl, Serratia culture): No reduction in activity

O=[N+]([O-])c1ccccc1O[C@@H]1O[C@H](CO)[C@H](O)[C@H](O)[C@H]1O [ONPG, ortho-nitrophenyl-b-D-galactopyranoside]
reaction with substrate (absorbance at 420 nm) [2]: reacted with the substrate
reaction with substrate (absorbance at 420 nm) [3]: other species did not

CC(=O)N[C@H]1[C@H](Oc2ccc([N+](=O)[O-])cc2)O[C@H](CO)[C@@H](O)[C@@H]1O [PNP-AGA, p-nitrophenyl-N-acetyl-b-D-glucosaminide]
modification of substrate (change in absorbance at 405 nm) [4]: reacted with the substrate, giving rise to a color change
modification of substrate (change in absorbance at 405 nm) [5]: None of the other culture supernatants were distinguishable from the water control

CO [methanol]
effect of additive on hydrolysis rate of p-nitrophenyl caprate (lipase from S. aureus): hydrolysis rate was found to increase

Dabsyl-NEAIQEDQVQYE-Edans (Dabsyl-NEAIQEDQVQYE-{EDANS}; SMILES CC[C@H](C)[C@H](NC(=O)[C@H](C)NC(=O)[C@H](CCC(=O)O)NC(=O)[C@H](CC(N)=O)NS(=O)(=O)c1ccc(/N=N/c2ccc(N(C)C)cc2)cc1)C(=O)N[C@@H](CCC(N)=O)C(=O)N[C@@H](CCC(=O)O)C(=O)N[C@@H](CC(=O)O)C(=O)N[C@@H](CCC(N)=O)C(=O)N[C@H](C(=O)N[C@@H](CCC(N)=O)C(=O)N[C@@H](Cc1ccc(O)cc1)C(=O)N[C@@H](CCC(=O)O)C(=O)NCCNc1cccc2c(S(=O)(=O)O)cccc12)C(C)C) [target peptide substrate used to test for the Serratia marcescens specific protease]
cleavage of target peptide substrate (relative fluorescence intensity over time) ([1]; S. marcescens overnight culture in BHI, 20 mM Tris (pH 7.5) with 200 mM NaCl, 37° C., emission 485 nm): reacted with the substrate, giving rise to an increase in fluorescence intensity
cleavage of target peptide substrate (relative fluorescence intensity over time) [6]: None of the other bacterial samples, including the Staphylococcus aureus sample, were distinguishable from the control
fluorescence of biosensor [7]: fluorescence was readily detected

Triton X-100
effect of additive on hydrolysis rate of p-nitrophenyl caprate (lipase from S. aureus): hydrolysis rate was found to increase
